Measured values: the supplement of paper PMC10627819

Legend:
S. pneumoniae D39V [1] = test: Bliss interaction score (quartile over a dose matrix) (fitness difference); higher = more antagonism (negative = synergy)
Method in brief: (§1)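 Fitness is OD595 at stationary-phase entry relative to the plate's robust no-drug mean, capped at 1. Single-drug fitness was inferred from combinations. The Bliss score is observed minus product-expected fitness, summarised by quartiles over technical, biological and donor/recipient replicates.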

B. subtilis 168 [2] = test: as above
Method in brief: as §1

S. aureus DSM 20231 = test: as above
Method in brief: as §1

S. aureus Newman = test: as above
Method in brief: as §1

S. pneumoniae D39V [3] = test: fitness (endpoint OD595 vs no drug) (fraction); higher = more growth
Method in brief: (§2)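 Plates with 384 wells were inoculated at OD595 0.01 using 30 µl of TSB, LB Lennox or CY, or 55 µl for S. pneumoniae. Incubation was at 37 °C, with OD595 measured every 30 min for 14 h. Fitness is the stationary-phase transition optical density over the robust mean of no-drug control wells, after first-reading background subtraction; it is capped at 1.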

B. subtilis 168 [4] = test: as above
Method in brief: as §2

[5] = first compound 0.25 µg/mL, partner 0.125 µg/mL, one replicate
[6] = first compound 0.5 µg/mL, partner 0.125 µg/mL, one replicate
[7] = first compound 1 µg/mL, partner 0.125 µg/mL, one replicate
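For Bliss interaction score (quartile over a dose matrix) in this document: first quartile when negative (synergy) and third quartile when positive (antagonism).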

CC1=C(C(=O)O)N2C(=O)[C@@H](NC(=O)[C@H](N)c3ccccc3)[C@H]2SC1 [Cephalexin] + CN(C)C(=O)C(CCN1CCC(O)(c2ccc(Cl)cc2)CC1)(c1ccccc1)c1ccccc1 [Loperamide]
Bliss interaction score (S. pneumoniae D39V [1]): -0.129 | Bliss interaction score (B. subtilis 168 [2]): -0.0893 | Bliss interaction score (S. aureus DSM 20231): 0.116 | Bliss interaction score (S. aureus Newman): 0.0814 | fitness (S. pneumoniae D39V [3]; first compound 0.125 µg/mL, partner 20 µg/mL, one replicate): ≥ 1 | fitness (S. pneumoniae D39V [3]; first compound 0.125 µg/mL, partner 40 µg/mL, one replicate): ≥ 1 | fitness (S. pneumoniae D39V [3]; first compound 0.125 µg/mL, partner 80 µg/mL, one replicate): 0.753 | fitness (S. pneumoniae D39V [3]; first compound 0.25 µg/mL, partner 20 µg/mL, one replicate): ≥ 1 | fitness (S. pneumoniae D39V [3]; first compound 0.25 µg/mL, partner 40 µg/mL, one replicate): 0.995 | fitness (S. pneumoniae D39V [3]; first compound 0.25 µg/mL, partner 80 µg/mL, one replicate): 0.784 | fitness (S. pneumoniae D39V [3]; first compound 0.5 µg/mL, partner 20 µg/mL, one replicate): ≥ 1 | fitness (S. pneumoniae D39V [3]; first compound 0.5 µg/mL, partner 40 µg/mL, one replicate): 0.99 | fitness (S. pneumoniae D39V [3]; first compound 0.5 µg/mL, partner 80 µg/mL, one replicate): 0.612 | fitness (S. pneumoniae D39V [3]; first compound 1 µg/mL, partner 68.57 µg/mL, one replicate): 0.53 | fitness (S. pneumoniae D39V [3]; first compound 2 µg/mL, partner 34.28 µg/mL): 0.165 | fitness (S. pneumoniae D39V [3]; first compound 2 µg/mL, partner 68.57 µg/mL, one replicate): 0.15 | fitness (S. pneumoniae D39V [3]; first compound 4 µg/mL, partner 17.14 µg/mL): 0.0474 | fitness (S. pneumoniae D39V [3]; first compound 4 µg/mL, partner 34.28 µg/mL): 0.0181 | fitness (S. pneumoniae D39V [3]; first compound 4 µg/mL, partner 68.57 µg/mL, one replicate): 0.0031 | fitness (B. subtilis 168 [4]; first compound 0.125 µg/mL, partner 25 µg/mL): 0.819 | fitness (B. subtilis 168 [4]; first compound 0.125 µg/mL, partner 50 µg/mL): 0.0465 | fitness (B. subtilis 168 [4]; first compound 0.125 µg/mL, partner 100 µg/mL): 0.0315 | fitness (B. subtilis 168 [4]; first compound 0.25 µg/mL, partner 25 µg/mL): 0.803 | fitness (B. subtilis 168 [4]; first compound 0.25 µg/mL, partner 50 µg/mL): 0.039 | fitness (B. subtilis 168 [4]; first compound 0.25 µg/mL, partner 100 µg/mL): 0.025 | fitness (B. subtilis 168 [4]; first compound 0.5 µg/mL, partner 25 µg/mL): 0.712 | fitness (B. subtilis 168 [4]; first compound 0.5 µg/mL, partner 50 µg/mL): 0.0372 | fitness (B. subtilis 168 [4]; first compound 0.5 µg/mL, partner 100 µg/mL): 0.0277

CC1=C(C(=O)O)N2C(=O)[C@@H](NC(=O)[C@H](N)c3ccccc3)[C@H]2SC1 [Cephalexin] + CO[C@@H]1[C@@H](OC(N)=O)[C@@H](O)[C@H](Oc2ccc3c(O)c(NC(=O)c4ccc(O)c(CC=C(C)C)c4)c(=O)oc3c2C)OC1(C)C [Novobiocin]
Bliss interaction score (S. pneumoniae D39V [1]): -0.0986 | Bliss interaction score (B. subtilis 168 [2]): 0.0738 | Bliss interaction score (S. aureus DSM 20231): 0.0648 | Bliss interaction score (S. aureus Newman): 0.0794 | fitness (B. subtilis 168 [4]; first compound 0.125 µg/mL, partner 0.0125 µg/mL): 0.97 | fitness (B. subtilis 168 [4]; first compound 0.125 µg/mL, partner 0.025 µg/mL): 0.918 | fitness (B. subtilis 168 [4]; first compound 0.125 µg/mL, partner 0.05 µg/mL): 0.984 | fitness (B. subtilis 168 [4]; first compound 0.25 µg/mL, partner 0.0125 µg/mL): 0.978 | fitness (B. subtilis 168 [4]; first compound 0.25 µg/mL, partner 0.025 µg/mL): 0.936 | fitness (B. subtilis 168 [4]; first compound 0.25 µg/mL, partner 0.05 µg/mL): 0.972 | fitness (B. subtilis 168 [4]; [5]): 0.95 | fitness (B. subtilis 168 [4]; first compound 0.25 µg/mL, partner 0.25 µg/mL, one replicate): 0.857 | fitness (B. subtilis 168 [4]; first compound 0.25 µg/mL, partner 0.5 µg/mL, one replicate): 0.603 | fitness (B. subtilis 168 [4]; first compound 0.5 µg/mL, partner 0.0125 µg/mL): 0.98 | fitness (B. subtilis 168 [4]; first compound 0.5 µg/mL, partner 0.025 µg/mL): 0.93 | fitness (B. subtilis 168 [4]; first compound 0.5 µg/mL, partner 0.05 µg/mL): 0.97 | fitness (B. subtilis 168 [4]; [6]): 0.839 | fitness (B. subtilis 168 [4]; first compound 0.5 µg/mL, partner 0.25 µg/mL, one replicate): 0.866 | fitness (B. subtilis 168 [4]; first compound 0.5 µg/mL, partner 0.5 µg/mL, one replicate): 0.49 | fitness (B. subtilis 168 [4]; [7]): 0.946 | fitness (B. subtilis 168 [4]; first compound 1 µg/mL, partner 0.25 µg/mL, one replicate): 0.926 | fitness (B. subtilis 168 [4]; first compound 1 µg/mL, partner 0.5 µg/mL, one replicate): 0.593

CC1=C(C(=O)O)N2C(=O)[C@@H](NC(=O)[C@H](N)c3ccccc3)[C@H]2SC1 [Cephalexin] + COc1cc(Cc2cnc(N)nc2N)cc(OC)c1OC [Trimethoprim]
Bliss interaction score (S. pneumoniae D39V [1]): 0.0759 | Bliss interaction score (B. subtilis 168 [2]): 0.113 | Bliss interaction score (S. aureus DSM 20231): -0.058 | Bliss interaction score (S. aureus Newman): -0.0582 | fitness (B. subtilis 168 [4]; first compound 0.125 µg/mL, partner 0.5 µg/mL): 0.445 | fitness (B. subtilis 168 [4]; first compound 0.125 µg/mL, partner 1 µg/mL, one replicate): 0.48 | fitness (B. subtilis 168 [4]; first compound 0.125 µg/mL, partner 2 µg/mL, one replicate): 0.501 | fitness (B. subtilis 168 [4]; first compound 0.25 µg/mL, partner 0.1 µg/mL, one replicate): 0.915 | fitness (B. subtilis 168 [4]; [5]): 0.749 | fitness (B. subtilis 168 [4]; first compound 0.25 µg/mL, partner 0.2 µg/mL, one replicate): 0.791 | fitness (B. subtilis 168 [4]; first compound 0.25 µg/mL, partner 0.25 µg/mL): 0.685 | fitness (B. subtilis 168 [4]; first compound 0.25 µg/mL, partner 0.4 µg/mL, one replicate): 0.533 | fitness (B. subtilis 168 [4]; first compound 0.25 µg/mL, partner 0.5 µg/mL): 0.465 | fitness (B. subtilis 168 [4]; first compound 0.25 µg/mL, partner 1 µg/mL, one replicate): 0.402 | fitness (B. subtilis 168 [4]; first compound 0.25 µg/mL, partner 2 µg/mL, one replicate): 0.418 | fitness (B. subtilis 168 [4]; first compound 0.5 µg/mL, partner 0.1 µg/mL, one replicate): 0.884 | fitness (B. subtilis 168 [4]; [6]): 0.758 | fitness (B. subtilis 168 [4]; first compound 0.5 µg/mL, partner 0.2 µg/mL, one replicate): 0.809 | fitness (B. subtilis 168 [4]; first compound 0.5 µg/mL, partner 0.4 µg/mL, one replicate): 0.565 | fitness (B. subtilis 168 [4]; first compound 0.5 µg/mL, partner 0.5 µg/mL): 0.517 | fitness (B. subtilis 168 [4]; first compound 0.5 µg/mL, partner 1 µg/mL, one replicate): 0.372 | fitness (B. subtilis 168 [4]; first compound 0.5 µg/mL, partner 2 µg/mL, one replicate): 0.509 | fitness (B. subtilis 168 [4]; first compound 1 µg/mL, partner 0.1 µg/mL, one replicate): 0.879 | fitness (B. subtilis 168 [4]; [7]): 0.759 | fitness (B. subtilis 168 [4]; first compound 1 µg/mL, partner 0.2 µg/mL, one replicate): 0.86 | fitness (B. subtilis 168 [4]; first compound 1 µg/mL, partner 0.25 µg/mL): 0.699 | fitness (B. subtilis 168 [4]; first compound 1 µg/mL, partner 0.4 µg/mL, one replicate): 0.572 | fitness (B. subtilis 168 [4]; first compound 1 µg/mL, partner 0.5 µg/mL): 0.528

CNC(C)C1CCC(N)C(OC2C(N)CC(N)C(OC3OCC(C)(O)C(NC)C3O)C2O)O1 (stereo not drawn) [Gentamicin] + CC(=O)NC[C@H]1CN(c2ccc(N3CCOCC3)c(F)c2)C(=O)O1 [Linezolid]
Bliss interaction score (S. pneumoniae D39V [1]; main component drawn): -0.136 | Bliss interaction score (B. subtilis 168 [2]; main component drawn): 0.144 | Bliss interaction score (S. aureus DSM 20231; main component drawn): 0.0779 | Bliss interaction score (S. aureus Newman; main component drawn): 0.0901 | fitness (S. pneumoniae D39V [3]; first compound 2 µg/mL, partner 0.105 µg/mL, main component drawn): 0.881 | fitness (S. pneumoniae D39V [3]; first compound 2 µg/mL, partner 0.2 µg/mL, main component drawn): 0.414 | fitness (S. pneumoniae D39V [3]; first compound 2 µg/mL, partner 0.21 µg/mL, main component drawn): 0.767 | fitness (S. pneumoniae D39V [3]; first compound 2 µg/mL, partner 0.4 µg/mL, main component drawn): 0.228 | fitness (S. pneumoniae D39V [3]; first compound 2 µg/mL, partner 0.42 µg/mL, main component drawn): 0.636 | fitness (S. pneumoniae D39V [3]; first compound 2 µg/mL, partner 0.8 µg/mL, main component drawn): 0.0665 | fitness (S. pneumoniae D39V [3]; first compound 4 µg/mL, partner 0.105 µg/mL, main component drawn): 0.908 | fitness (S. pneumoniae D39V [3]; first compound 4 µg/mL, partner 0.2 µg/mL, main component drawn): 0.408 | fitness (S. pneumoniae D39V [3]; first compound 4 µg/mL, partner 0.21 µg/mL, main component drawn): 0.759 | fitness (S. pneumoniae D39V [3]; first compound 4 µg/mL, partner 0.4 µg/mL, main component drawn): 0.215 | fitness (S. pneumoniae D39V [3]; first compound 4 µg/mL, partner 0.42 µg/mL, main component drawn): 0.6 | fitness (S. pneumoniae D39V [3]; first compound 4 µg/mL, partner 0.8 µg/mL, main component drawn): 0.0715 | fitness (S. pneumoniae D39V [3]; first compound 8 µg/mL, partner 0.105 µg/mL, main component drawn): 0.843 | fitness (S. pneumoniae D39V [3]; first compound 8 µg/mL, partner 0.2 µg/mL, main component drawn): 0.37 | fitness (S. pneumoniae D39V [3]; first compound 8 µg/mL, partner 0.21 µg/mL, main component drawn): 0.758 | fitness (S. pneumoniae D39V [3]; first compound 8 µg/mL, partner 0.4 µg/mL, main component drawn): 0.212 | fitness (S. pneumoniae D39V [3]; first compound 8 µg/mL, partner 0.42 µg/mL, main component drawn): 0.579 | fitness (S. pneumoniae D39V [3]; first compound 8 µg/mL, partner 0.8 µg/mL, main component drawn): 0.0595 | fitness (B. subtilis 168 [4]; first compound 0.0625 µg/mL, partner 0.0625 µg/mL, one replicate, main component drawn): 0.827 | fitness (B. subtilis 168 [4]; first compound 0.125 µg/mL, partner 0.0625 µg/mL, one replicate, main component drawn): 0.0748 | fitness (B. subtilis 168 [4]; first compound 0.25 µg/mL, partner 0.0625 µg/mL, one replicate, main component drawn): 0.0626
